In PMC12250302, “Synthesis, Antimicrobial Activities, and Model of Action of Novel Tetralone Derivatives Containing Aminoguanidinium Moiety” (International Journal of Molecular Sciences, 2025):
Values after ≈ are worked out from the molar mass of the structure shown.

Assays:
Assay in all cases: MIC and MBC testing, broth microdilution
S. aureus ATCC 29213 = assay type: cell-based, Staphylococcus aureus; conditions: Staphylococcus aureus, ATCC29213, S. aureus ATCC 29213; for MIC: 18 h, read-out: MIC; for MBC: read-out: MBC
From the text: (§1) The minimum inhibitory concentrations (MICs) and minimum bactericidal concentrations (MBCs) of the synthesized compounds effective against ESKAPE strains, S. aureus clinical isolates, and MRSA were investigated by the broth dilution method. Levofloxacin is a broad-spectrum antibacterial agent that is widely used in the treatment of ESKAPE infections. Therefore, levofloxacin was selected as the positive control for the preliminary activity screening. DMSO (0.1%) was selected as the negative control.
(§2) The minimum inhibitory concentration (MIC) of all synthesized compounds was tested by the broth microdilution method. In brief, compounds dissolved in DMSO were diluted twice continuously in a 96-well plate with MH broth. The ESKAPE pathogens (E. coli ATCC 25922, S. aureus ATCC 29213, K. pneumoniae ATCC 700603, A. baumannii ATCC 19606, P. aeruginosa ATCC 27853, and E. faecium ATCC 35667), clinical S. aureus isolates (LMY45, LMY46, LMY47, and LMY48) and methicillin-resistant Staphylococcus aureus (MRSA-1 and MRSA-2) were cultured in MH broth to logarithmic growth phase and then diluted to 1 × 10^6 CFU/mL in MH broth. Subsequently, the diluted bacterial solution was mixed with the diluted compound solution in a 96-well plate and incubated at 37 °C for a duration of 18 h. The MIC of the compounds was recorded as the lowest concentration at which no visible growth was observed. […] Each concentration was replicated thrice.

E. faecium ATCC 35667 = assay type: cell-based, Enterococcus faecium; conditions: Enterococcus faecium, ATCC35667, E. faecium ATCC 35667; for MIC: 18 h, read-out: MIC; for MBC: read-out: MBC
From the text: as §1, §2

A. baumannii ATCC 19606 = assay type: cell-based, Acinetobacter baumannii; conditions: Acinetobacter baumannii; for MIC: ATCC19606, 18 h, read-out: MIC; for MBC: ATCC19606, read-out: MBC
From the text: as §1, §2

E. coli ATCC 25922 = assay type: cell-based, Escherichia coli; conditions: Escherichia coli; for MIC: ATCC25922, 18 h, read-out: MIC; for MBC: ATCC25922, read-out: MBC
From the text: as §1, §2

MRSA-2 = assay type: cell-based, Staphylococcus aureus; conditions: Staphylococcus aureus, MRSA-2; for MIC: 18 h, read-out: MIC; for MBC: read-out: MBC
Procedure: (§3) Furthermore, the MBC values of the compounds were detected.
as §2, with “h.” for “h. The MIC of the compounds was recorded as the lowest concentration at which no visible growth was observed.”

[1] = test system: clinical S. aureus isolate LMY47; assay type: cell-based, Staphylococcus aureus; conditions: Staphylococcus aureus, LMY47; for MIC: 18 h, read-out: MIC; for MBC: read-out: MBC
Procedure: as §3
as §2, with “h.” for “h. The MIC of the compounds was recorded as the lowest concentration at which no visible growth was observed.”

[2] = test system: clinical S. aureus isolate LMY45; assay type: cell-based, Staphylococcus aureus; conditions: Staphylococcus aureus, LMY45; for MIC: 18 h, read-out: MIC; for MBC: read-out: MBC
Procedure: as §3
as §2, with “h.” for “h. The MIC of the compounds was recorded as the lowest concentration at which no visible growth was observed.”

[3] = test system: clinical S. aureus isolate LMY46; assay type: cell-based, Staphylococcus aureus; conditions: Staphylococcus aureus, LMY46; for MIC: 18 h, read-out: MIC; for MBC: read-out: MBC
Procedure: as §3
as §2, with “h.” for “h. The MIC of the compounds was recorded as the lowest concentration at which no visible growth was observed.”

[4] = test system: clinical S. aureus isolate LMY48; assay type: cell-based, Staphylococcus aureus; conditions: Staphylococcus aureus, LMY48; for MIC: 18 h, read-out: MIC; for MBC: read-out: MBC
Procedure: as §3
as §2, with “h.” for “h. The MIC of the compounds was recorded as the lowest concentration at which no visible growth was observed.”

MRSA-1 = assay type: cell-based, Staphylococcus aureus; conditions: Staphylococcus aureus, MRSA-1; for MIC: 18 h, read-out: MIC; for MBC: read-out: MBC
Procedure: as §3
as §2, with “h.” for “h. The MIC of the compounds was recorded as the lowest concentration at which no visible growth was observed.”

[5] = test system: K. pneumoniae ATCC 700603; assay type: cell-based, Klebsiella pneumoniae; conditions: Klebsiella pneumoniae; for MIC: ATCC700603, 18 h, read-out: MIC; for MBC: ATCC700603, read-out: MBC
From the text: as §1, §2

P. aeruginosa ATCC 27853 = assay type: cell-based, Pseudomonas aeruginosa; conditions: Pseudomonas aeruginosa; for MIC: ATCC27853, 18 h, read-out: MIC; for MBC: ATCC27853, read-out: MBC
From the text: as §1, §2

Row | Compound | MIC (S. aureus ATCC 29213) [µg/mL] | MBC (S. aureus ATCC 29213) [µg/mL] | MIC (E. faecium ATCC 35667) [µg/mL] | MBC (E. faecium ATCC 35667) [µg/mL] | MIC (A. baumannii ATCC 19606) [µg/mL] | MBC (A. baumannii ATCC 19606) [µg/mL] | MIC (E. coli ATCC 25922) [µg/mL] | MBC (E. coli ATCC 25922) [µg/mL] | MIC (MRSA-2) [µg/mL] | MBC (MRSA-2) [µg/mL] | MIC [1] [µg/mL] | MBC [1] [µg/mL] | MIC [2] [µg/mL] | MBC [2] [µg/mL] | MIC [3] [µg/mL] | MBC [3] [µg/mL] | MIC [4] [µg/mL] | MBC [4] [µg/mL] | MIC (MRSA-1) [µg/mL] | MBC (MRSA-1) [µg/mL] | also measured
1 | [H]/N=C(\N)NN=C1CCCc2cc(OCCCCCC)ccc21 [Compound 2C, (E)-2-(6-(hexyloxy)-3,4-dihydronaphthalen-1(2H)-ylidene)hydrazine-1-carboximidamide] | 1 (≈ 3.31 µM) | 8 (≈ 26.5 µM) | 2 (≈ 6.61 µM) | 8 (≈ 26.5 µM) | 4 (≈ 13.2 µM) | 4 (≈ 13.2 µM) | 4 (≈ 13.2 µM) | 4 (≈ 13.2 µM) | 2 (≈ 6.61 µM) | 4 (≈ 13.2 µM) | 2 (≈ 6.61 µM) | 8 (≈ 26.5 µM) | 8 (≈ 26.5 µM) | 32 (≈ 106 µM) | 8 (≈ 26.5 µM) | 16 (≈ 52.9 µM) | 4 (≈ 13.2 µM) | 32 (≈ 106 µM) | 4 (≈ 13.2 µM) | 16 (≈ 52.9 µM) | MIC [5]: 8 µg/mL (≈ 26.5 µM); MBC [5]: 8 µg/mL (≈ 26.5 µM); MIC (P. aeruginosa ATCC 27853): 8 µg/mL (≈ 26.5 µM); MBC (P. aeruginosa ATCC 27853): 16 µg/mL (≈ 52.9 µM)
2 | [H]/N=C(\N)NN=C1CCCc2cc(OCc3ccc(F)c(F)c3)ccc21 [Compound 1H, (E)-2-(6-((3,4-difluorobenzyl)oxy)-3,4-dihydronaphthalen-1(2H)-ylidene)hydrazine-1-carboximidamide] | 2 (≈ 5.81 µM) | 8 (≈ 23.2 µM) | 4 (≈ 11.6 µM) | 16 (≈ 46.5 µM) | 8 (≈ 23.2 µM) | 8 (≈ 23.2 µM) | 4 (≈ 11.6 µM) | 16 (≈ 46.5 µM) | 2 (≈ 5.81 µM) | 8 (≈ 23.2 µM) | 2 (≈ 5.81 µM) | 8 (≈ 23.2 µM) | 2 (≈ 5.81 µM) | 4 (≈ 11.6 µM) | 2 (≈ 5.81 µM) | > 32 | 2 (≈ 5.81 µM) | 4 (≈ 11.6 µM) | 2 (≈ 5.81 µM) | 32 (≈ 92.9 µM) | MIC [5]: 16 µg/mL (≈ 46.5 µM); MBC [5]: 32 µg/mL (≈ 92.9 µM); MIC (P. aeruginosa ATCC 27853): 32 µg/mL (≈ 92.9 µM); MBC (P. aeruginosa ATCC 27853): 32 µg/mL (≈ 92.9 µM)
3 | [H]/N=C(\N)NN=C1CCCc2cc(OCc3cc(F)ccc3F)ccc21 [Compound 1E, (E)-2-(6-((2,5-difluorobenzyl)oxy)-3,4-dihydronaphthalen-1(2H)-ylidene)hydrazine-1-carboximidamide] | 2 (≈ 5.81 µM) | 16 (≈ 46.5 µM) | 4 (≈ 11.6 µM) | 16 (≈ 46.5 µM) | 8 (≈ 23.2 µM) | 8 (≈ 23.2 µM) | 8 (≈ 23.2 µM) | 8 (≈ 23.2 µM) | 2 (≈ 5.81 µM) | 8 (≈ 23.2 µM) | 2 (≈ 5.81 µM) | 8 (≈ 23.2 µM) | 2 (≈ 5.81 µM) | 4 (≈ 11.6 µM) | 2 (≈ 5.81 µM) | 8 (≈ 23.2 µM) | 2 (≈ 5.81 µM) | 2 (≈ 5.81 µM) | 2 (≈ 5.81 µM) | 32 (≈ 92.9 µM) | MIC [5]: 32 µg/mL (≈ 92.9 µM); MBC [5]: 32 µg/mL (≈ 92.9 µM); MIC (P. aeruginosa ATCC 27853): > 32 µg/mL
4 | [H]/N=C(\N)NN=C1CCCc2cc(OCc3cccc(Br)c3)ccc21 [Compound 1R, (E)-2-(6-((3-bromobenzyl)oxy)-3,4-dihydronaphthalen-1(2H)-ylidene)hydrazine-1-carboximidamide] | 2 (≈ 5.16 µM) | 16 (≈ 41.3 µM) | 2 (≈ 5.16 µM) | 8 (≈ 20.7 µM) | 4 (≈ 10.3 µM) | 4 (≈ 10.3 µM) | 8 (≈ 20.7 µM) | 8 (≈ 20.7 µM) | 2 (≈ 5.16 µM) | 4 (≈ 10.3 µM) | 2 (≈ 5.16 µM) | 8 (≈ 20.7 µM) | 2 (≈ 5.16 µM) | 4 (≈ 10.3 µM) | 2 (≈ 5.16 µM) | 4 (≈ 10.3 µM) | 2 (≈ 5.16 µM) | 16 (≈ 41.3 µM) | 2 (≈ 5.16 µM) | 16 (≈ 41.3 µM) | MIC [5]: 8 µg/mL (≈ 20.7 µM); MBC [5]: 8 µg/mL (≈ 20.7 µM); MIC (P. aeruginosa ATCC 27853): > 32 µg/mL
